Data taken from PMC5698723, “Oxetane Grafts Installed Site‐Selectively on Native Disulfides to Enhance Protein Stability and Activity In Vivo” (Angewandte Chemie (International Ed. in English), 2017).

Assays:
[1] = Stability of stapled cyclic peptides in GSH solution; format: physicochemical; conditions: around 1 mM peptide in H2O, 1 mM GSH, 37 °C, 48 h, HPLC read-out (212 nm)
Description: 6. Stability test of stapled cyclic peptides
A 100 µL aliquot of stapled peptide (around 1 mM) in H2O was treated with 5.3 µL of a 20 mM GSH solution (to 1 mM) and the resulting mixture vortexed for 30 s and then shaken at 37 °C. After 48 h, an aliquot of each reaction mixture was analysed by HPLC [YMC-Pack Pro C18 column (5 µ, 250 mm × 10 mm), isocratic: acetonitrile+0.1% TFA /water+0.1% TFA (73- […]
(§1) 27), 15 min, λ = 212nm, flow=3.5)]. […]
(YMC-Pack Pro C18 column (5 µ, 250 mm × 10 mm), isocratic: acetonitrile+0.1% TFA […]
(§2) /water+0.1% TFA (73-27), 15 min, λ = 212nm, flow=3.5)).

[2] = Stability of stapled cyclic peptides in human plasma; format: in vitro ADME; conditions: around 1 mM peptide in H2O (100 µL) + 1 µL reconstituted human plasma, 37 °C, 48 h, HPLC read-out (212 nm)
Description: 6. Stability test of stapled cyclic peptides […]
as §1
A 100 µL aliquot of stapled peptide (around 1 mM) in H2O was treated with 1 µL of
reconstituted human plasma (Sigma-Aldrich) and the resulting mixture vortexed for 30 s and
then shaken at 37 °C. After 48 h, an aliquot of each reaction mixture was analysed by HPLC
(YMC-Pack Pro C18 column (5 µ, 250 mm × 10 mm), isocratic: acetonitrile+0.1% TFA
as §2

Structure (SMILES) | stability in the presence of glutathione (GSH) [1] | stability in human plasma [2]
C[C@@H](O)[C@@H]1NC(=O)[C@H](CCCCN)NC(=O)[C@@H](Cc2c[nH]c3ccccc23)NC(=O)[C@H](Cc2ccccc2)NC(=O)[C@@H](NC(=O)[C@H](N)Cc2ccccc2)CSCC2(COC2)CSC[C@@H](C(=O)N[C@H](CO)[C@@H](C)O)NC1=O [compound 5] | remain intact | remain intact
C[C@H](N)C(=O)NCC(=O)N[C@H]1CSCC2(COC2)CSC[C@@H](C(=O)O)NC(=O)[C@H](CO)NC(=O)[C@H]([C@@H](C)O)NC(=O)[C@H](Cc2ccccc2)NC(=O)[C@H]([C@@H](C)O)NC(=O)[C@H](CCCCN)NC(=O)[C@H](Cc2c[nH]c3ccccc23)NC(=O)[C@H](Cc2ccccc2)NC(=O)[C@H](Cc2ccccc2)NC(=O)[C@H](CC(N)=O)NC(=O)[C@H](CCCCN)NC1=O [compound 3] | remain intact | remain intact
